Structures can show the parent of a compound that is named as a salt. Where two headings read alike, the source gives them in different places.

This note sets out measurements from patent publication US8058243B2, “Method for treating a brain cancer with ifenprodil” (HSC Research and Development Limited Partnership, priority 2006, dated 2011).

The subject of this experiment is murine neural precursor cells (neurosphere cultures). In words: HTS of LOPAC library against secondary neurosphere cultures, MTT proliferation assay at 3 μM, day 7 (z score, P value). The experiment is classed as cell-based, mouse. In general terms: Tetrazolium assays rely on reduction of a dye to a coloured formazan, in cell work by metabolically active cells.
Where [1] appears, read: LOPAC primary screen, neurosphere MTT proliferation, 3 μM, day 7.
Setting [2] is: yes = significantly inhibited neurosphere proliferation (P<0.01) in the primary screen.
[3] abbreviates: primary LOPAC screen, 3 μM, MTT, neurosphere proliferation.
Where [4] appears, read: yes/no: significantly inhibited neurosphere proliferation in the primary screen.
[5] abbreviates: yes/no: significantly inhibited neurosphere proliferation (P<0.01) in the primary screen.
The mark [6] stands for this setting: yes/no: significantly inhibited neurosphere proliferation (P<0.01) in primary screen.
The mark [7] stands for this setting: LOPAC library screen at 3 μM, secondary neurosphere cultures, MTT.
Where [8] appears, read: LOPAC library screen, 3 μM, MTT, neurosphere cultures.
The mark [9] stands for this setting: LOPAC library screen, 3 μM, MTT, secondary neurosphere cultures, day 7.

Turning to `CC1CNCCN1S(=O)(=O)c1cccc2cnccc12.Cl.Cl` (stereo not shown) [H-7 dihydrochloride], the “Z Score” value amounted to 0.6813. Also, the Z score under setting [1] is 0.681.

As to `CNCCNS(=O)(=O)c1cccc2cnccc12.Cl.Cl` [H-8 dihydrochloride], the “Z Score” value is −1.583. Under setting [1], the Z score is recorded as −1.583. Moreover, the Activity result under setting [2] was “no”.

In the case of `Cl.Cl.NCCNS(=O)(=O)c1cccc2cnccc12` [H-9 dihydrochloride], the “Z Score” value was −0.1899. Under setting [3], this compound displayed a Z score of −0.190. Besides, under setting [4], the Activity result is “no”.

For the compound `O=S(=O)(c1cccc2cnccc12)N1CCNCC1` [HA-100], the “Z Score” value is listed as −0.6892. Moreover, the Z score under setting [1] was −0.689. Besides, under setting [5], the Activity result is on record as “no”.

As for `Cl.NC(N)=NCCNS(=O)(=O)c1cccc2cnccc12` [HA-1004 hydrochloride], the “Z Score” value is reported as 0.3161. The same compound gave a Z score under setting [1] of 0.316. Besides, the Activity entry under setting [6] was “no”.

As to `CCCCC#Cc1nc(N)c2ncn([C@@H]3O[C@H](C(=O)NCC)[C@@H](O)[C@H]3O)c2n1` [HE-NECA], the “Z Score” value is listed as −2.504. Moreover, the Z score under setting [1] is reported as −2.504. For the same compound, under setting [5], the Activity entry is “yes”.

For the compound `O=C(CCCN1CCC(O)(c2ccc(Cl)cc2)CC1)c1ccc(F)cc1` [Haloperidol], the “Z Score” value under setting [7] is −0.7399. Under setting [1], this compound registered a Z score of −0.740. Also, the Activity result under setting [6] is “no”.

On to `Cc1nccc2c1[nH]c1ccccc12` [Harmane], for which the “Z Score” value is on record as −1.403. This compound gave a Z score under setting [1] of −1.403.

For `C[N+]1(C)CCOC(O)(c2ccc(-c3ccc(C4(O)C[N+](C)(C)CCO4)cc3)cc2)C1.[Br-].[Br-]` (stereo not shown) [Hemicholinium-3], the “Z Score” value turned out to be 0.7871. This compound also displayed a Z score under setting [1] of 0.787. Also, the Activity entry under setting [6] is recorded as “no”.

With `C[N+](C)(C)CCCCCC[N+](C)(C)C` [Hexamethonium bromide], the “Z Score” value is −0.8199. Moreover, under setting [1], the Z score is listed as −0.820. The Activity result under setting [5] is recorded as “no”.

Consider `C[N+](C)(C)CCCCCC[N+](C)(C)C.[Cl-].[Cl-]` [Hexamethonium dichloride], for which the “Z Score” value is listed as −10.63. Besides, the Z score under setting [1] is −10.634. In addition, the Activity entry under setting [5] is “yes”.

Regarding `O=c1cc(O)cc(/C=C/c2ccc(O)c(O)c2)o1` [Hispidin], for the setting “168 h, 3 µM”, the “Z Score” value is on record as 0.8896 and the Z score turned out to be 0.890. Besides, under setting [6], the Activity result is listed as “no”.

On to `Cl.Cl.NCCc1c[nH]cn1` [Histamine dihydrochloride], for which the Activity result is listed as “no”, the “Z Score” value is −1.476 and the Z score is reported as −1.476.

As for `NNc1nncc2ccccc12` [Hydralazine hydrochloride], the “Z Score” value under setting [8] stood at 0.2592. The Z score under setting [1] stood at 0.259. The Activity result under setting [6] is recorded as “no”.

`NS(=O)(=O)c1cc2c(cc1Cl)NCNS2(=O)=O` [Hydrochlorothiazide]: under setting [7], the “Z Score” value was −0.212. Moreover, the Z score under setting [1] was −0.212. For the same compound, under setting [6], the Activity result is on record as “no”.

With `C[C@]12CCC(=O)C=C1CC[C@@H]1[C@@H]2[C@@H](O)C[C@@]2(C)[C@H]1CC[C@]2(O)C(=O)COC(=O)CCC(=O)[O-].[Na+]` [Hydrocortisone 21-hemisuccinate sodium], the “Z Score” value under setting [8] was −0.04033. Under setting [1], the Z score is −0.040. Further, the Activity result under setting [6] is reported as “no”.

Take `C[C@]12CCC(=O)C=C1CC[C@@H]1[C@@H]2[C@@H](O)C[C@@]2(C)[C@H]1CC[C@]2(O)C(=O)CO` [Hydrocortisone]: under setting [9], the “Z Score” value is −3.049. This compound also had a Z score under setting [1] of −3.049. For the same compound, the Activity entry under setting [2] is “yes”.

In the case of `Oc1ccc(O)cc1` [Hydroquinone], the “Z Score” value under setting [8] was determined as 0.428. Besides, under setting [1], the Z score was 0.428. Besides, the Activity result under setting [6] is “no”.

Regarding `Cl.NO` [Hydroxylamine hydrochloride], the Activity entry is recorded as “no”, the “Z Score” value was determined as 1.635 and the Z score stood at 1.635.

Consider `NC(=O)NO` [Hydroxyurea], for which the “Z Score” value under setting [8] came out at 1.131. Under setting [1], this compound displayed a Z score of 1.131. Besides, under setting [6], the Activity result was “no”.

With `NCCS(=O)O` [Hypotaurine], the Activity result is reported as “no”, the “Z Score” value was found to be 0.2752 and the Z score amounted to 0.275.

For `COc1cc(/C=C(\C#N)C(=O)c2ccc(O)c(O)c2)cc(I)c1O` [I-OMe-Tyrphostin AG 538], the “Z Score” value under setting [7] is −0.7369. The same compound registered a Z score under setting [3] of −0.737. In addition, the Activity result under setting [4] is listed as “no”.

For `CNC(=O)[C@H]1O[C@@H](n2cnc3c(NCc4cccc(I)c4)ncnc32)[C@H](O)[C@@H]1O` [IB-MECA], the “Z Score” value under setting [7] is given as −1.089. The Z score under setting [1] is listed as −1.089. Under setting [6], the Activity entry is listed as “no”.

In the case of `COc1cc(OC)c(C=C2C(O)=Nc3ccccc32)c(OC)c1` [IC 261], the “Z Score” value is listed as −1.63. This compound also returned a Z score under setting [1] of −1.630. Moreover, the Activity entry (yes/no: significantly inhibited neurosphere proliferation in primary screen) is listed as “no”.

On to `Cc1ccc(OCC(O)C(C)NC(C)C)c2c1CCC2.Cl` (stereo not shown) [ICI 118,551 hydrochloride], for which the “Z Score” value came to 1.101. This compound yielded a Z score under setting [1] of 1.101. Under setting [6], the Activity result is reported as “no”.

Regarding `CN(C(=O)Cc1ccc(Cl)c(Cl)c1)C(CN1CCCC1)c1cccc(OCC(=O)O)c1.Cl` (stereo not shown) [ICI 204,448 hydrochloride], the “Z Score” value is given as −0.3636. Under setting [1], this compound showed a Z score of −0.364. Also, the Activity result under setting [6] is recorded as “no”.

As to `Br.C[N+](C)(C)CCCCCNCC12CC3CC(CC(C3)C1)C2.[Br-]` [IEM-1460], the “Z Score” value is 0.6848. Also, the Z score under setting [1] was 0.685. Also, the Activity entry under setting [6] is recorded as “no”.

Consider `CCCC(=O)NCCc1c2n(c3ccc(OC)cc13)Cc1ccccc1-2` [IIK7], for which the “Z Score” value is on record as −0.3544. For the same compound, the Z score under setting [1] was −0.354. The Activity entry under setting [6] is on record as “no”.

`Cl.Fc1ccc(CN(C2=NCCN2)c2c(Cl)cccc2Cl)cc1` [IMID-4F hydrochloride]: the “Z Score” value is −1.906. The compound also registered a Z score under setting [1] of −1.906. In addition, under setting [6], the Activity entry is “no”.

As for `CC(C)C(=O)c1c(C(C)C)nn2ccccc12` [Ibudilast], the “Z Score” value under setting [8] was 0.3787. The compound further gave a Z score under setting [1] of 0.379.

In the case of `O=C1NC(c2cccc([N+](=O)[O-])c2)=CCN1c1ccccc1O` [Icilin], the “Z Score” value (LOPAC library screen at 3 μM, MTT, secondary neurosphere cultures, screened in singlets) is 1.643. For the same compound, the Z score (LOPAC screen, neurosphere MTT proliferation, 3 μM, day 7) is on record as 1.643. For the same compound, under setting [6], the Activity entry is “no”.

Consider `CC(=O)[C@]1(O)Cc2c(O)c3c(c(O)c2[C@@H](O[C@H]2C[C@H](N)[C@H](O)[C@H](C)O2)C1)C(=O)c1ccccc1C3=O` [Idarubicin], for which the “Z Score” value under setting [9] was −11.27. In addition, under setting [1], the Z score is given as −11.274. Further, the Activity entry under setting [2] was “yes”.

As for `c1ccc2c(c1)OCC(C1=NCCN1)O2` (stereo not shown) [Idazoxan hydrochloride], under setting [9], the “Z Score” value is recorded as −1.448. Further, the Z score under setting [1] is recorded as −1.448. Moreover, under setting [6], the Activity result is “no”.

`O=C1CCC(c2ccc(-n3ccnc3)cc2)=NN1` [Imazodan]: under “168 h, 3 µM”, the “Z Score” value was found to be 0.4616 and the Z score turned out to be 0.462. Moreover, the Activity entry under setting [6] is given as “no”.

Take `N=C(N)SCCc1cnc[nH]1` [Imetit dihydrobromide]: the “Z Score” value is −0.2452 and the Z score is −0.245.

Regarding `Cl.O=C(O)Cc1c[nH]cn1` [Imidazole-4-acetic acid hydrochloride], the “Z Score” value was −0.9223. Under setting [1], this compound returned a Z score of −0.922. In addition, the Activity result under setting [6] was “no”.

`CCn1ccnc1CC1COc2ccccc2O1` (stereo not shown) [Imiloxan hydrochloride]: the “Z Score” value under setting [7] was −0.9879. This compound had a Z score under setting [1] of −0.988. Moreover, the Activity result under setting [6] is “no”.

Regarding `CN(C)CCCN1c2ccccc2CCc2ccccc21` [Imipramine hydrochloride], the Activity entry is “no”. Besides, the “Z Score” value under setting [7] is reported as −0.5272. The compound also gave a Z score under setting [1] of −0.527.

Turning to `CN[C@@H]1C[C@@H](c2ccc(Cl)c(Cl)c2)c2ccccc21` [Indatraline hydrochloride], the “Z Score” value is listed as −0.7236. Moreover, the Z score under setting [1] was −0.724. Besides, the Activity result under setting [6] is reported as “no”.

On to `O=C1Nc2ccccc2/C1=C1/Nc2ccccc2/C1=N\O` [Indirubin-3′-oxime], for which the “Z Score” value under setting [7] is given as −0.3965. Under setting [1], this compound yielded a Z score of −0.397. Further, the Activity entry under setting [6] is “no”.

For the compound `COc1ccc2c(c1)c(CC(=O)N1CCOCC1)c(C)n2C(=O)c1ccc(Cl)cc1` [Indomethacin morpholinylamide], for the setting “168 h, 3 µM”, the “Z Score” value is listed as −3.398 and the Z score was −3.398. Further, under setting [5], the Activity entry is listed as “yes”.

Take `COc1ccc2c(c1)c(CC(=O)O)c(C)n2C(=O)c1ccc(Cl)cc1` [Indomethacin]: under setting [7], the “Z Score” value is on record as −0.3563. In addition, the Z score under setting [1] is −0.356. Moreover, under setting [5], the Activity entry is listed as “no”.

As for `NC(=O)CI` [Iodoacetamide], the “Z Score” value was −8.706. This compound also returned a Z score under setting [1] of −8.706. The Activity entry under setting [5] is “yes”.

Turning to `CC(C)NC(C)Cc1ccc(I)cc1` (stereo not shown) [Iofetamine hydrochloride], the “Z Score” value is −0.7588. This compound had a Z score under setting [1] of −0.759.

Consider `CC(C)[N+]1(C)[C@@H]2CC[C@H]1CC(OC(=O)C(CO)c1ccccc1)C2.[Br-]` (stereo partly shown) [Ipratropium bromide], for which the “Z Score” value is recorded as −0.308. Moreover, the Z score under setting [1] is −0.308. The Activity result under setting [6] was “no”.
